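48-hour exposure; five concentrations; linearly interpolated endpoints. Here, GI50 denotes the concentration required for 50% inhibition of growth.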 Active and inactive are the calls of the source. No stated cut-off is given here; in the data, active = GI50 up to about 1.1 µM and inactive = higher. Residues, ends and D or L forms follow the SMILES beside them. *: point of attachment. Pentanoyl = CCCCC(=O)*; Boc = CC(C)(C)OC(=O)*
Key:
Assay in all cases: NCI tumour cell line growth inhibition, 48 h
[1] = tested on: A549
[2] = tested on: CAKI-1
[3] = tested on: COLO 205
[4] = tested on: DU-145
[5] = tested on: HCT-116
[6] = tested on: HT-29
[7] = tested on: Hs-578T
[8] = tested on: MCF7
[9] = tested on: MDA-MB-231
[10] = tested on: MDA-MB-435
[11] = tested on: Malme-3M
[12] = tested on: NCI-H522
[13] = tested on: OVCAR-3
[14] = tested on: RXF 393
[15] = tested on: SF-268
[16] = tested on: SF-295
[17] = tested on: SK-MEL-28
[18] = tested on: SR
[19] = tested on: TK-10
[20] = tested on: HCC 2998

Measured: GI50

O=[N+]([O-])c1cccc(CSc2nc(O)c3nc[nH]c3n2)c1
inactive: [1] > 100 µM | [2] > 100 µM | [3] > 100 µM | [4] > 100 µM | [5] > 100 µM | [6] > 100 µM | [7] 87.1 µM | [8] > 100 µM | [9] > 100 µM | [10] > 100 µM | [11] > 100 µM | [12] 76.6 µM | [13] > 100 µM | [14] > 100 µM | [15] > 100 µM | [16] > 100 µM | [17] > 100 µM | [18] > 100 µM | [19] > 100 µM

Cc1c(/C=N/NC(=S)Nc2ccccc2Cl)c(=O)n(-c2ccccc2)n1C
inactive: [1] 27.6 µM | [2] 19.7 µM | [3] 38.7 µM | [4] 60.4 µM | [5] 28.6 µM | [6] 29.4 µM | [7] 24 µM | [8] 46.5 µM | [9] 14.9 µM | [10] > 100 µM | [11] 32.7 µM | [12] 22.5 µM | [13] 34.1 µM | [14] 16.1 µM | [15] 43.8 µM | [16] 28.1 µM | [17] 58.6 µM | [18] 43.8 µM | [19] 23.4 µM

CCOP(=O)(OCC)/C(C#N)=C/c1cnc(-c2ccccc2)[nH]1
inactive: [1] > 100 µM | [2] > 100 µM | [3] > 100 µM | [4] > 100 µM | [20] > 100 µM | [5] > 100 µM | [6] > 100 µM | [7] > 100 µM | [8] > 100 µM | [9] > 100 µM | [10] 24.7 µM | [11] > 100 µM | [12] > 100 µM | [13] > 100 µM | [14] > 100 µM | [15] > 100 µM | [16] > 100 µM | [17] > 100 µM | [18] > 100 µM

NC(CCC(=O)O)C(=O)N1CCN(c2nc(N3CCCC3)c3nc(Cl)c(NCc4ccccc4)nc3n2)CC1 (centres undefined)
inactive: [1] 12.5 µM | [2] 17.8 µM | [3] 10.7 µM | [4] 8.43 µM | [20] 11.4 µM | [5] 13.9 µM | [6] 9.95 µM | [7] 20 µM | [8] 7.24 µM | [9] 14.4 µM | [10] 9.48 µM | [11] 17.3 µM | [12] 14.8 µM | [13] 8.71 µM | [15] 13.1 µM | [16] 11.6 µM | [17] 9.48 µM | [18] 3.68 µM | [19] 17.1 µM

COc1cc2c(cc1OC)[C@@](C)(C(O)C(O)C(C)(C)O)NCC2 (some centres undefined)
inactive: [1] > 100 µM | [2] > 100 µM | [3] > 100 µM | [4] > 100 µM | [5] > 100 µM | [6] > 100 µM | [7] > 100 µM | [8] > 100 µM | [9] > 100 µM | [10] > 100 µM | [11] > 100 µM | [12] > 100 µM | [13] > 100 µM | [14] > 100 µM | [15] > 100 µM | [16] > 100 µM | [17] > 100 µM | [18] > 100 µM | [19] > 100 µM

NCCSC(c1ccccc1)c1ccccc1
inactive: [1] 39.3 µM | [2] 24.9 µM | [3] 23.7 µM | [4] 29.2 µM | [5] 16.7 µM | [6] 17.7 µM | [7] 24.2 µM | [8] 19.3 µM | [9] 18.6 µM | [10] 19.1 µM | [11] 19.5 µM | [12] 19.1 µM | [13] 19.1 µM | [14] 17.7 µM | [15] 26.6 µM | [16] 18.2 µM | [17] 18.6 µM | [18] 17.6 µM | [19] 16.9 µM

CCOC(CN(C)C(=O)OCC(Cl)(Cl)Cl)OCC
inactive: [1] > 100 µM | [2] 34.1 µM | [3] 27.7 µM | [4] > 100 µM | [20] > 100 µM | [5] 41.5 µM | [6] 79.1 µM | [7] 29.7 µM | [8] 67.9 µM | [9] 25.5 µM | [10] > 100 µM | [12] 47.8 µM | [13] > 100 µM | [14] 30.7 µM | [15] > 100 µM | [16] > 100 µM | [17] > 100 µM | [18] 34.2 µM | [19] > 100 µM

COc1cccc(C23CCN(C)C(CC(O)C2)C3)c1OC (centres undefined)
inactive: [1] > 100 µM | [2] > 100 µM | [3] > 100 µM | [4] > 100 µM | [5] > 100 µM | [6] > 100 µM | [7] > 100 µM | [8] > 100 µM | [9] > 100 µM | [10] > 100 µM | [11] > 100 µM | [12] > 100 µM | [13] > 100 µM | [15] > 100 µM | [16] > 100 µM | [17] > 100 µM | [18] > 100 µM | [19] > 100 µM

Cc1cccc(/C=N/NC(=S)NC(C)(C)C)n1
inactive: [1] > 100 µM | [2] > 100 µM | [3] 6.14 µM | [4] 66.8 µM | [20] 56.1 µM | [5] 19.7 µM | [6] 3.12 µM | [7] > 100 µM | [8] 18.5 µM | [9] 34.6 µM | [10] > 100 µM | [11] > 100 µM | [12] 14.5 µM | [13] 30.8 µM | [15] 41 µM | [16] > 100 µM | [17] > 100 µM | [18] 23.7 µM | [19] 75.2 µM

O=C(O)CC1OCC=C2C[N+]3([O-])CCC45c6ccccc6NC4C1C2CC53 (centres undefined)
inactive: [1] > 100 µM | [2] > 100 µM | [3] > 100 µM | [4] > 100 µM | [5] > 100 µM | [6] > 100 µM | [7] > 100 µM | [8] > 100 µM | [9] > 100 µM | [10] > 100 µM | [11] > 100 µM | [12] > 100 µM | [13] > 100 µM | [14] > 100 µM | [15] > 100 µM | [16] > 100 µM | [17] > 100 µM | [18] > 100 µM | [19] > 100 µM

CC(O)CN1c2ccccc2Sc2ccccc21 (centres undefined)
inactive: [1] > 100 µM | [2] > 100 µM | [3] > 100 µM | [4] > 100 µM | [20] > 100 µM | [5] > 100 µM | [6] > 100 µM | [7] > 100 µM | [8] > 100 µM | [9] > 100 µM | [10] > 100 µM | [11] > 100 µM | [12] > 100 µM | [13] > 100 µM | [14] > 100 µM | [15] > 100 µM | [16] > 100 µM | [17] > 100 µM | [19] > 100 µM

Nc1cc([N+](=O)[O-])ccc1C(=O)N1CCC[C@H]1CO
inactive: [1] > 100 µM | [2] > 100 µM | [3] > 100 µM | [4] > 100 µM | [5] > 100 µM | [6] > 100 µM | [7] 64.1 µM | [8] > 100 µM | [9] > 100 µM | [10] > 100 µM | [11] > 100 µM | [12] > 100 µM | [14] > 100 µM | [15] > 100 µM | [16] > 100 µM | [17] > 100 µM | [18] > 100 µM | [19] > 100 µM

CN(Cc1cnc2nc(N)nc(N)c2n1)c1ccc(C(=O)NC(CCC(=O)NC(P(=O)(O)O)P(=O)(O)O)C(=O)O)cc1 (centres undefined)
inactive: [1] 15.3 µM | [2] 12.4 µM | [3] > 100 µM | [4] 45.3 µM | [5] 4.49 µM | [6] 6.47 µM | [7] > 100 µM | [8] 39.8 µM | [9] > 100 µM | [10] 30 µM | [11] > 100 µM | [12] 29 µM | [13] > 100 µM | [14] 4.79 µM | [15] 20.3 µM | [16] 13.1 µM | [17] 83 µM | [18] 9.06 µM | [19] > 100 µM

CCCCC(=O)Oc1ccc(CC(NC(=O)OC(C)(C)C)C(=O)NC(C)C(=O)NC(Cc2ccccc2)C(=O)NCC(N)=O)cc1 (centres undefined) (Boc-Y(Pentanoyl)AFG-NH2; configuration not given here)
inactive: [1] > 100 µM | [2] > 100 µM | [3] 19.6 µM | [4] > 100 µM | [20] 20.6 µM | [5] 21.4 µM | [6] 19.4 µM | [7] 34.6 µM | [8] 20.5 µM | [9] 20 µM | [10] 20 µM | [11] 31.6 µM | [12] 18.8 µM | [13] 20.4 µM | [14] 44.5 µM | [15] 31.6 µM | [16] 63.8 µM | [17] 27.3 µM | [19] > 100 µM

Source: ChEMBL document CHEMBL1201862, “PubChem BioAssay data set” (2004)
